{
  "source": "patent US20230081357A1",
  "about": "“TOPICAL COMPOSITION COMPRISING CANNABIDIOL” (CURALEAF INTERNATIONAL LIMITED, priority 2020, published 2023)",
  "key": {"[1]": {"system": "human hair dermal papilla cells (HHDPCs)", "test": "Mitogenesis in hair bulb cells, total cellular protein content (Bradford)", "assay_type": "cell-based", "conditions": "positive control (human insulin), % of negative control", "description": "(§1) The test is carried out on human hair dermal papilla cells (HHDPCs) with fibroblast-like morphology. Cells are cultured in MEM containing 10% FBS and antibiotics.\n(§2) Cells have been seeded in 24 wells plates and allowed to grow for 24 h at 37° C. and 5% CO2. Cells underwent starvation in serum-free medium for 6 hours before treatment.\n(§3) The niosome dispersion was dissolved directly in the medium culture. The test was carried out in three replicates.\n(§4) After 24- and 48-hours exposure the cell viability and the total cellular protein content were assessed on separate plates. Untreated cells were used as negative controls (NC); cells treated with human insulin were used as positive control (PC).\nThe total cellular protein content was tested according to Bradford method. Cells at the end of the treatment were washed twice with PBS and lysed by treatment with purified water at 4° C. Dye reagent was added to each sample. […] Reading was made at 595 nm with a colorimeter equipped with a plate-reader.\nTo quantify proteins, a standard plot with albumin was designed and the sample concentrations were determined on the bases of their absorbance values using the interpolation plot formula. Mean values of every set of data were calculated, and for each sample the percentage of increase in the protein synthesis was determined by comparison with the negative control (NC) according to the following formula: […]"}, "IL-1α [2]": {"system": "IL-1α", "test": "In vitro soothing efficacy, SLS-induced IL-1α release by ELISA", "assay_type": "cell-based, human", "conditions": "SLS 0.30% for 70 minutes, then CBD-S5 diluted at 2%, positive control = SLS only", "description": "(§5) The assay assessed quantitatively the effects of the sample in protecting skin cells and in inhibiting the […] reaction caused by moderate irritating agents as sodium lauryl sulfate (SLS) by means of a multilayer in vitro skin cell model.\n(§6) The inhibition of the SLS-induced release of IL-1α cytokine was investigated (through specific ELISA assay) following exposure to the tested substance and respect to skin untreated samples. Cell viability was determined by the MTT assay.\n(§7) Both assays used a reconstructed artificial human skin model comprising normal human epidermal keratinocytes, growing as an integrated three-dimensional cell culture model, perfectly mimicking the human skin in vitro. […] The model was supplied by Episkin (Lion, Batch 20-RHE-041).\nEpidermis was treated for 70 minutes with SLS at 0.30% in order to induce IL-1α synthesis and release. […] As negative control, two epidermis units were treated with phosphate buffer, while epidermis units treated for 70 minutes with SLS 0.30% were used as positive control. Test was carried out in two replicates.\nFor IL-1α assay, the culture medium has been collected at 6 and 24 hours. […] IL-1α was determined in the medium culture of treated and not treated epidermis, using a direct ELISA test (Enzyme-linked immunosorbent assay). […] Samples were read at 450 nm. […]\nCytokine concentration was determined using a standard curve. […]"}, "[3]": {"system": "human hair dermal papilla cells (HHDPCs)", "test": "Mitogenesis in hair bulb cells, cell viability by MTT after starving", "assay_type": "cell-based", "conditions": "positive control (human insulin), % of negative control", "description": "as §1, §2, §3, §4\nThe cell viability was assessed by incubating the tissues for 2 hours with MTT (3-[4,5-dimethylthiazol-2-yl]-2,5-diphenyl tetrazolium bromide) solution. The precipitated formazan was then extracted using DMSO and quantified spectrophotometrically. The absorbance at 570 nm (OD570) was measured with a microplate reader (Tecan, Infinite 200 PRO), deducting background at 650 nm (OD650).\nThe cell viability was expressed in percentage terms according to the following formula: […]"}, "IL-1α [4]": {"system": "IL-1α", "test": "Particulate (PM2.5) resistance test, IL-1α release by ELISA", "assay_type": "cell-based, human", "conditions": "sample alone, 24 h at 37° C.; 30 μl CBD-S5, 30 μl SDS 5% or 20 μg PM2.5; untreated RHE (NC) = 100%", "description": "After incubation at 37° C. for 24 h in a controlled atmosphere of 5% CO2, the cell viability of the RHE sample was assessed by MTT assay, as described in Example 5A, while the culture medium was collected and analyzed for IL-1α release by ELISA assay, using an EMIL1ALPHA kit (Invitrogen-Thermo Scientific) with the following procedure.\n100 μl of medium from each treatment was transferred to wells coated with anti-human IL-1α and incubated for 2 hours at room temperature. At the end of the incubation, the medium was removed and the wells were washed 4 times with 1× Wash Buffer. 100 μl of biotinylated antibody was added to each well and incubated for 1 hour at room temperature. At the end, the wells were washed 4 times with 1× Wash Buffer, treated with 100 μl of Streptavidin-HRP solution for 45 minutes at room temperature and finally washed 4 times with 1× Wash Buffer. 100 μl of TMB substrate was added to each well and incubated for 10 minutes in the dark. Finally, 100 μl of stop solution was added to each well and spectrophotometric readings were taken at wavelengths of 450 nm and 550 nm using the μQUANT BIO TEK Microplate Spectrophotometer instrument.\nChanges in IL-1α levels released from the RHE tissue after each treatment were expressed as % values compared to the untreated RHE (NC) used as control (100%)."}, "[5]": {"system": "reconstituted human epidermis (RHE)", "test": "In vitro irritation test on reconstituted human epidermis, MTT cell viability", "assay_type": "cell-based", "conditions": "60 minutes treatment, 24 hours incubation, % of negative control, 25 μg CBD-S5 or 30 μL 5% SDS", "description": "The in vitro test consists of a topical exposure of the test substance on reconstituted human epidermis (RHE) followed by a cell viability test.\nCell viability is determined by the conversion of MTT (3-(4,5-dimethylthiazol-2-yl)-2,5-diphenyltetrazolium bromide) to a formazan blue salt, which is quantitatively measured after extraction from tissue. Conversion occurs via the mitochondrial enzyme succinate dehydrogenase, which is only active in living cells, causing the MTT tetrazole ring to open and formazan to form. Assessment of the viability of tissues exposed to the test substance compared to the negative control (treated with Dulbecco's phosphate buffered saline—DPBS) and the positive control (treated with sodium dodecyl sulphate—SDS) is used to predict skin irritation potential.\nThe reconstructed human epidermis model consists of normal human-derived epidermal keratinocytes cultured to recreate a highly differentiated multilayered human epidermis. […]\nThe optical density of the extracted formazan is determined spectrophotometrically at a wavelength of 570 nm using the μQUANT BIO TEK Microplate Spectrophotometer. Relative cell viability is calculated for each tissue as % of the mean optical density of the negative control tissues."}, "[6]": {"test": "In vitro soothing efficacy, cell viability by MTT after SLS", "assay_type": "cell-based", "conditions": "human; read-out: % mean cell viability (standard deviation)", "description": "as §5, §6, §7\nEpidermis was treated for 70 minutes with SLS at 0.30% in order to induce IL-1α synthesis and release. […] As negative control, two epidermis units were treated with phosphate buffer, while epidermis units treated for 70 minutes with SLS 0.30% were used as positive control. […]\nEpidermis units were treated with 1 mg/ml MTT solution (3-[4,5-dimethylthiazol-2-yl]-2,5-diphenyl tetrazolium bromide) for 3 h at 37° C. […] Two aliquots of every sample were transferred to a 96 well plate for the reading. The absorbance (OD) was read at the wavelength of 570 nm with a colorimeter (Tecan model Infinite F200) equipped with a microplate reader. […]"}, "[7]": {"system": "transfected rat basophil cells (RBL-2H3 ATCC® CRL-2256™) expressing the IgE human receptor (FcRI)", "test": "Anti-itch activity: basophil degranulation, β-hexosaminidase release", "assay_type": "cell-based", "conditions": "for % degranulation inhibition: basophils activated with anti-IgE receptor", "text": "In vivo, a basophil cell degranulation mediated by IgE triggers an immediate allergic reaction characterized by the quick release of pre-stored inflammatory mediators (histamine, leukotrienes, thromboxane, basophilic enzymes, hexosaminidases), causing redness, rashes, itchiness and local inflammatory reactions. The ability of a composition to inhibit the degranulation of basophil cells is an indicator of its capability to inhibit the above described symptoms and above them mainly itching.\nThe test is carried out on a cell line of transfected rat basophil cells (RBL-2H3 ATCC® CRL-2256™) expressing the IgE human receptor (FcRI). Cells are kept in RPMI containing 10% FCS and 2 mM glutamine.\nUntreated cells were used as negative control for the spontaneous degranulation.\nA positive control consisting in cells exposed to anti-human IgE receptor antibodies was used to evaluate the maximal degranulation level.\nCell lysates in 1% Triton were also analyzed in order to evaluate the highest possible release of the analyzed molecules.\nThe release of β-hexosaminidase during degranulation was monitored on RBL-SX38 cell supernatant added with […]-N-acetyl-β-D-glucosamine (Sigma-Aldrich) in 0.1 M citrate buffer (pH 6.2) and incubated at 37° C. for 120 min. The reaction was terminated using 0.1M carbonate buffer (pH 10), and the absorbance was read at 405 nm (OD405).\nThe supernatant of untreated cells was used as negative control. The maximal stimulation of RBL-SX38 was evaluated on a 1% Triton X-100 lysate of the cell monolayer.\nSodium hyaluronate in serial dilutions, as indicated in the following Table 11, was also used as a control of the inhibition of basophil degranulation.\nThe inhibition degranulation percentage of activated basophil with IgE receptor has been calculated with the following formula: […]"}},
  "data": [
    {"compound": "Positive control: positive control of Example 10: cells treated with human insulin", "values": [
      {"measurement": "% protein synthesis (ds)", "setting": "[1]; 24 hours", "value": 140.65, "unit": "%"},
      {"measurement": "% protein synthesis (ds)", "setting": "[1]; 48 hours", "value": "149.65 (10.83) %"},
      {"measurement": "IL-1α, 6 hours", "setting": "IL-1α [2]; culture medium at 6 hours", "value": 105.57, "unit": "pg/mL"},
      {"measurement": "IL-1α, 24 hours", "setting": "IL-1α [2]; culture medium at 24 hours", "value": 597.32, "unit": "pg/mL"},
      {"measurement": "% cell viability (ds)", "setting": "[3]; 24 hours", "value": 136.73, "unit": "%"},
      {"measurement": "% cell viability (ds)", "setting": "[3]; 48 hours", "value": "136.72 (8.16) %"}
    ]},
    {"compound": "CCCCCCCCCCCCOS(=O)(=O)[O-].[Na+]", "note": "[PC, sodium dodecyl sulphate]", "values": [
      {"measurement": "Mean IL-1α release (%)", "setting": "IL-1α [4]", "value": 235.35, "unit": "%"},
      {"measurement": "Mean relative viability (%)", "setting": "[5]", "value": 2.16, "unit": "%"}
    ]},
    {"compound": "CCCCCCCCCCCCOS(=O)(=O)[O-].[Na+]", "note": "[Positive control (PC), sodium lauryl sulfate]", "values": [
      {"measurement": "viability at 70 min, 0.3 %", "setting": "[6]", "value": 47.4, "unit": "%"}
    ]},
    {"compound": "Triton X-100", "values": [
      {"measurement": "OD405", "setting": "[7]; controls: maximal degranulation by anti-human IgE receptor antibodies, 1% Triton X-100 lysate, negative control 0.068", "value": 1.852}
    ]},
    {"compound": "Sodium hyaluronate [Hyaluronic acid (HA)]", "values": [
      {"measurement": "OD405", "setting": "[7]; 1.25 mg/ml + positive control (anti-human IgE receptor)", "value": 0.879},
      {"measurement": "OD405", "setting": "[7]; 1.25 mg/ml, sample alone (spontaneous degranulation)", "value": 0.086},
      {"measurement": "% degranulation inhibition", "setting": "[7]; 1.25 mg/ml", "value": 15.7, "unit": "%"},
      {"measurement": "OD405", "setting": "[7]; 2.5 mg/ml + positive control (anti-human IgE receptor)", "value": 0.690},
      {"measurement": "OD405", "setting": "[7]; 2.5 mg/ml, sample alone (spontaneous degranulation)", "value": 0.084},
      {"measurement": "% degranulation inhibition", "setting": "[7]; 2.5 mg/ml", "value": 35.3, "unit": "%"},
      {"measurement": "OD405", "setting": "[7]; 5 mg/ml + positive control (anti-human IgE receptor)", "value": 0.527},
      {"measurement": "OD405", "setting": "[7]; 5 mg/ml, sample alone (spontaneous degranulation)", "value": 0.077},
      {"measurement": "% degranulation inhibition", "setting": "[7]; 5 mg/ml", "value": 52.3, "unit": "%"},
      {"measurement": "OD405", "setting": "[7]; 10 mg/ml + positive control (anti-human IgE receptor)", "value": 0.255},
      {"measurement": "OD405", "setting": "[7]; 10 mg/ml, sample alone (spontaneous degranulation)", "value": 0.065},
      {"measurement": "% degranulation inhibition", "setting": "[7]; 10 mg/ml", "value": 80.6, "unit": "%"}
    ]}
  ]
}
